Data reported in US7049312B1, “Benzothiazinone and benzoxazinone compounds” (Abbott GmbH & Co. KG, priority 1999, dated 2006).

Compared with `S=C1Nc2ccccc2SC1=Cc1c[nH]c2ncccc12` [Example 269, 2-[(7-azaindol-3-yl)methylene]-2H-1,4-benzothiazine-3(4H)-thione], `S=C1Nc2ccccc2SC1=Cc1c[nH]c2ccccc12` [Example 268, 2-[(Indol-3-yl)methylene]-2H-1,4-benzothiazine-3(4H)-thione] is lower in melting point: 287 to 290 °C for the first, 253 to 256 °C for the second.

First: O=C1Nc2ncccc2OC1=Cc1ccccc1 [Example 297, 2-(Phenylmethylene)-2H-pyrido[3,2-b][1,4]oxazin-3(4H)-one]
Second: ON=C1Nc2ccccc2OC1=Cc1ccc[nH]1 [Example 278, 3-Hydroxyimino-2-[(pyrrol-2-yl)methylene]-2H-1,4-benzoxazine]
The melting point of the first is higher: 223 to 225 °C for the first, 192 to 194 °C for the second.

First: O=C(ON=C1Nc2ccccc2SC1=Cc1ccc[nH]1)c1ccccc1 [Example 277, 3-Benzoyloxyimino-2-[(pyrrol-2-yl)methylene]-2H-1,4-benzothiazine]
Second: CC(=O)ON=C1Nc2ccccc2SC1=Cc1ccc[nH]1 [Example 276, 3-Acetyloxyimino-2-[(pyrrol-2-yl)methylene]-2H-1,4-benzothiazine]
The melting point of the first is higher: 188 to 189 °C for the first, 182 to 185 °C for the second.

First: S=C1Nc2ccccc2OC1=Cc1c[nH]c2ccccc12 [Example 272, 2-[(indol-3-yl)methylene]-2H-1,4-benzoxazin-3(4H)-thione]
Second: S=C1Nc2ccccc2OC1=Cc1ccc[nH]1 [Example 271, 2-[(Pyrrol-2-yl)methylene]-2H-1,4-benzoxazin-3 (4H)-thione]
The melting point of the first is higher: 275 to 277 °C for the first, 241 to 243 °C for the second.

First: O=C1Nc2ccccc2S(=O)(=O)C1=Cc1c[nH]c2ccccc12 [Example 280, 1,1-Dioxo-2-[(indol-3-yl)methylene]-2H-1,4-benzothiazin-3(4H)-one]
Second: COc1ccc(NC=C2C(=O)Nc3ccccc3S2(=O)=O)cc1 [Example 285, 1,1 Dioxo-2-[(4-methoxyphenylamino)methylene]-2H-1,4-benzothiazin-3(4H)-one]
The melting point of the first is higher: 318 to 320 °C for the first, 250 to 251 °C for the second.

First: S=C1Nc2ccccc2SC1=Cc1ccc[nH]1 [Example 270, 2-[(pyrrol-2-yl)methylene]-2H-1,4-benzothiazine-3(4H)-thione]
Second: ON=C1Nc2ccccc2SC1=Cc1ccc[nH]1 [Example 273, 3-Hydroxyimino-2-[(pyrrol-2-yl)methylene]-2H-1,4-benzothiazine]
The melting point of the first is higher: 205 to 206 °C for the first, 204 to 205 °C for the second.

Molecule `CC(=O)OCCCCn1cc(C=C2Sc3ccccc3NC2=O)c2cccnc21` [Example 131, 2-{[1-(4-Acetoxybutyl)-7-azaindol-3-yl]methylene}-2H-1,4-benzothiazine-3(4H)-one] has a melting point of 158 to 160 °C.
